# According to PubChem BioAssay (NCI):
# Where “and” joins values, the source holds several entries; their conditions need not be identical. Equal values may be shown once.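 Protocol summary: plate cells (96-well), add compound at 5 concentrations, incubate 48 h, interpolate endpoints linearly. Here, GI50 denotes the concentration required for 50% inhibition of growth. TGI is the concentration that stops growth completely.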
# How the values were obtained:
# Assay in all cases: NCI tumour cell line growth inhibition, 48 h
# NCI-H23 lung = test system: NCI-H23 lung
# KM12 colon = test system: KM12 colon
# COLO 205 colon = test system: COLO 205 colon
# CCRF-CEM leukemia = test system: CCRF-CEM leukemia
# TK-10 renal = test system: TK-10 renal
# OVCAR-4 ovarian = test system: OVCAR-4 ovarian
# HS 578T breast = test system: HS 578T breast
# SNB-75 CNS = test system: SNB-75 CNS
# UACC-257 melanoma = test system: UACC-257 melanoma
# MDA-N = test system: MDA-N
SMILES,TGI (NCI-H23 lung) [µM],TGI (KM12 colon),TGI (COLO 205 colon) [µM],TGI (CCRF-CEM leukemia),TGI (TK-10 renal) [µM],TGI (OVCAR-4 ovarian),TGI (HS 578T breast),TGI (SNB-75 CNS),TGI (UACC-257 melanoma) [µM],TGI (MDA-N) [µM],GI50 (NCI-H23 lung),GI50 (KM12 colon) [µM],GI50 (COLO 205 colon),GI50 (CCRF-CEM leukemia) [µM],GI50 (TK-10 renal),GI50 (HS 578T breast) [µM],GI50 (UACC-257 melanoma),GI50 (OVCAR-4 ovarian) [nM],GI50 (SNB-75 CNS) [nM]
CN(CCNC(=S)c1cn(C)c2c1ccc1ccccc12)CCNC(=S)c1cn(C)c2c1ccc1ccccc12,> 100,> 100 µM,> 100,> 100 µM,> 100,> 100 µM,> 100 µM,> 100 µM,> 100,,,,,,,,,,
COC(=O)c1ccc(C=C(C#N)C#N)cc1,38.4,92.2 µM,74.6,51.9 µM,79.1,47 µM,,82.5 µM,,,,,,,,,,,
COC(=O)[C@@]1(NC(=O)C(CC(=O)OC(C)(C)C)NC(=O)OC(C)(C)C)C[C@H]1C (stereo partly drawn),> 100,> 100 µM,> 100,> 100 µM,> 100,> 100 µM,> 100 µM,> 100 µM,> 100,> 100,,,,,,,,,
NC(=O)c1sc2nc3ccccc3n2c1N,41.4,,> 100,> 100 µM,> 100,> 100 µM,> 100 µM,79.1 µM,> 100,> 100,,,,,,,,,
O=C(O)CCCc1ccccc1,> 1000,366 µM and > 1000 µM,> 1000,350 µM and > 1000 µM,> 1000,184 µM and > 1000 µM,625 µM and > 1000 µM,327 µM and > 1000 µM,> 1000,> 1000,377 µM and > 1000 µM,> 1000,363 µM and > 1000 µM,> 1000,285 µM and > 1000 µM,> 1000,340 µM and > 1000 µM,,
CC(C)=CCC/C(C)=C/CCC1(C)C=Cc2c(c3ccccc3oc2=O)O1 (stereo not drawn),28.9,33.2 µM,35.5,> 74 µM,,28.4 µM,,19.8 µM,31.2,,,,,,,,,,
COc1cc(C(=O)O)c(-c2cc3c(cc2C=O)OCO3)c(OC)c1OC,> 10,> 10 µM,> 10,> 10 µM,> 10,> 10 µM,> 10 µM,> 10 µM,> 10,> 10,,,,,,,,,
c1n[nH]cc1C12C3C4C5C3C1C5C42 (stereo not drawn),> 100,> 100 µM,> 100,> 100 µM,> 100,> 100 µM,> 100 µM,> 100 µM,> 100,> 100,,,,,,,,,
COc1ccc(C(=O)Oc2c(C#N)sc3c2c(=O)n(-c2ccccc2)c(=S)n3-c2ccccc2)cc1,56.3,54.6 µM,80.4,74 µM,76,79 µM,69.6 µM,> 100 µM,> 100,,,,,,,,,,
CCC(C)N1CN(c2ccccc2)C2(CCN(CCCSc3ccc(F)cc3)CC2)C1=O (stereo not drawn),16,15.2 µM,3.47,7.22 µM,11.2,,,25 µM,7.37,10.7,,,,,,,,,
CCN1C[C@]2(C)CC[C@H](OC)C34C5C[C@@H]6[C@@H](OC)C[C@@](OC)(C5[C@H]6OCc5ccccc5)C(C13)[C@H](OC(C)=O)[C@@H]42 (stereo partly drawn),> 100,> 100 µM,> 100,> 100 µM,> 100,> 100 µM,> 100 µM,36 µM,> 100,> 100,,,,,,,,,
COc1ccc(-n2c(C)nc3ccc(NC4OC(CO)C(O)C(O)C4O)cc3c2=O)cc1 (stereo not drawn),> 100,> 100 µM,> 100,,> 100,> 100 µM,> 100 µM,> 100 µM,> 100,> 100,,,,,,,,,
O=C1/C(=C/c2cccs2)NC(=S)N1CN1CCCCC1,> 100,> 100 µM,47.3,> 100 µM,> 100,> 100 µM,> 100 µM,> 100 µM,,> 100,,,,,,,,,
CN(C)C(F)=PC(F)(F)F (stereo not drawn),> 100,> 100 µM,> 100,> 100 µM,> 100,> 100 µM,,> 100 µM,> 100,,,,,,,,,,
CC1CC(N2CCOCC2)=Nc2ccccc2N1Cc1ccccc1 (stereo not drawn),> 100,> 100 µM,> 100,> 100 µM,> 100,> 100 µM,> 100 µM,,> 100,,,,,,,,,,
O=C(Nc1ccc2[nH]c(C(=O)N3CC(CCl)c4ccc([N+](=O)[O-])cc43)cc2c1)c1cc2ccccc2o1 (stereo not drawn),> 1100,> 1100 µM,> 1100,> 1100 µM,,> 1100 µM,> 1100 µM,,> 1100,> 1100,,,,,,,,,
COc1cc(-c2cc(=O)c3ccccc3[nH]2)cc(OC)c1OC,> 75,> 75 µM,> 75,> 75 µM,> 75,,,> 75 µM,> 75,,,,,,,,,,
CSC(=N)N1N=C2/C(=C/c3ccccc3)CCC[C@H]2[C@H]1c1ccccc1,19.2,23.2 µM,2.93,8.2 µM,25.8,11.8 µM,,,6.92,,,,,,,,,,
CC(C)N(C(=O)C12C3C4C1C1C2C3C41C(=O)N(C(C)C)C(C)C)C(C)C (stereo not drawn),> 50,> 50 µM,> 50,> 50 µM,> 50,> 50 µM,,> 50 µM,> 50,,,,,,,,,,
CC1SC(c2ccc(Cl)cc2)N(CCc2cccs2)C1=O (stereo not drawn),3.85,3.36 µM,3.02,11.3 µM,3.4,2.44 µM,4.1 µM,5.99 µM,4.23,,1.48 µM,1.52,1.63 µM,2.14,1.68 µM,1.53,1.99 µM,1190,2050
Cc1c(C2=NN=C(N=Nc3c(O)cccc3O)/C2=C/c2ccccc2)c(=O)n(-c2ccccc2)n1C,> 100,> 100 µM,> 100,> 100 µM,,> 100 µM,,> 100 µM,> 100,,,,,,,,,,
C=C(CCC=C(C)C)C1CC=C(C)CC1 (stereo not drawn),34.9,52.6 µM,71.5,,> 100,,59 µM,,> 100,37.9,,,,,,,,,
C/C(N=NS(=O)(=O)c1ccc(C)cc1)=C1\C=CC=CN1O,> 100,> 100 µM,,> 100 µM,> 100,> 100 µM,,> 100 µM,> 100,,,,,,,,,,
NC(CCCCNCc1ccccc1O)C(=O)O (stereo not drawn),> 100,> 100 µM,> 100,> 100 µM,> 100,> 100 µM,,> 100 µM,> 100,,,,,,,,,,

SMILES,TGI (NCI-H23 lung) [µM],TGI (KM12 colon),TGI (COLO 205 colon) [µM],TGI (CCRF-CEM leukemia),TGI (TK-10 renal) [µM],TGI (OVCAR-4 ovarian),TGI (HS 578T breast),TGI (SNB-75 CNS),TGI (UACC-257 melanoma) [µM],TGI (MDA-N) [µM],GI50 (NCI-H23 lung),GI50 (KM12 colon) [µM],GI50 (COLO 205 colon),GI50 (CCRF-CEM leukemia) [µM],GI50 (TK-10 renal),GI50 (HS 578T breast) [µM],GI50 (UACC-257 melanoma),GI50 (OVCAR-4 ovarian) [nM],GI50 (SNB-75 CNS) [nM]
CSc1ccc2c(cc1=O)C(NC(=O)c1ccc(C#N)cc1)CCc1cc(O)c(O)c(O)c1-2 (stereo not drawn),71.3,> 100 µM,38.6,57.8 µM,> 100,27.2 µM,,14.6 µM,37,,,,,,,,,,
COc1ccc(NC/C=C/C(=C/COC(C)=O)OC(C)=O)cc1,,1.99 µM,3.4,5.12 µM,3.74,3.26 µM,6.12 µM,20.5 µM,5.04,4.07,,,,,,,,,
S=C(N/N=C/c1ccccn1)N1CCCCCC1,> 58.6,63.3 µM,,0.393 µM,38,37 µM,> 100 µM,0.987 µM,0.169,> 48.9,,,,,,,,,
BrCc1ccc(CBr)c2c1-c1c(CBr)ccc3ccc(CBr)c-2c13,,> 100 µM,,,> 100,> 100 µM,> 100 µM,> 100 µM,> 100,> 100,,,,,,,,,
CCc1ccccc1NC(=O)CC1NC(=O)CS1 (stereo not drawn),> 100,> 100 µM,> 100,> 100 µM,> 100,> 100 µM,,> 100 µM,> 100,,,,,,,,,,
Nc1nc2ncn(CC(O)CO)c2c(=O)[nH]1 (stereo not drawn),,> 100 µM,> 100,> 100 µM,> 100,> 100 µM,,> 100 µM,> 100,,,,,,,,,,
O=c1ccn(/C=C/C(O)C(O)CO)c(=O)[nH]1 (stereo not drawn),> 100,40.9 µM,> 100,> 100 µM,> 100,> 100 µM,,> 100 µM,> 100,,,,,,,,,,
CC(C)CCC[C@@H](C)[C@H]1CC[C@H]2C3=C[C@H](OS(=O)(=O)O)[C@@]4(O)C[C@@H](O)CC[C@]4(C)[C@@]3(O)CC[C@]12C,> 100,> 100 µM,> 100,> 100 µM,> 100,> 100 µM,,,> 100,> 100,,,,,,,,,
O=C(N/N=C(\C1=Nc2ccc(Cl)cc2NC1O)C(O)/C=C/c1ccccc1)c1ccncc1 (stereo not drawn),> 100,> 100 µM,> 100,> 100 µM,> 100,> 100 µM,,> 100 µM,> 100,,,,,,,,,,
CNC(=O)CCCNC(=O)CCCC(=O)OC,> 100,> 100 µM,> 100,> 100 µM,> 100,,> 100 µM,> 100 µM,> 100,> 100,,,,,,,,,
Nc1[nH]c(=O)[nH]c(=O)c1Cc1cccc(Cl)c1,> 100,> 100 µM,> 100,,> 100,> 100 µM,> 100 µM,> 100 µM,> 100,> 100,,,,,,,,,
COC(=O)CCC(NC(=S)N/N=C(\C)c1cnccn1)C(=O)OC (stereo not drawn),> 100,> 100 µM,> 100,58.1 µM,> 100,> 100 µM,,> 100 µM,> 100,,,,,,,,,,
Cc1ccc(/N=N/C(=NNC(=O)c2ccc(C)cc2)c2ccc(N(C)C)cc2)cc1,69.3,37 µM,31.1,,> 100,54 µM,> 100 µM,,60,46.1,,,,,,,,,
Oc1cccnc1/C=N/OCc1ccccc1,,> 100 µM,> 100,> 100 µM,> 100,,,> 100 µM,> 100,,,,,,,,,,
Nc1c(Cl)cc(-c2nc3ccccc3s2)cc1Cl,,> 100 µM,> 100,> 100 µM,> 100,,> 100 µM,> 100 µM,> 100,> 100,,,,,,,,,
COCCOCOC(C)(C)[C@H](CCO)O[Si](c1ccccc1)(c1ccccc1)C(C)(C)C,35.9,31.9 µM,33.9,,23,,,21.6 µM,23.5,,,,,,,,,,
CCC(=O)C(CCN1CCC(N2C(=O)C(CCC#N)c3ccccc32)CC1)(c1ccccc1)c1ccccc1 (stereo not drawn),48.8,28 µM,21.4,,31.2,,26.5 µM,31.7 µM,26.7,,,,,,,,,,
O=C1c2ccccc2C(=O)c2c1cc1c(c2[N+](=O)[O-])OCO1,8.29,5.94 µM,16.8,> 100 µM,6.39,4.85 µM,6.02 µM,3.46 µM,41.5,,2.4 µM,1.45,3.46 µM,0.492,2.38 µM,2.28,11.8 µM,1200,1440
Nc1ccc(-c2nc3ccc(F)cc3s2)cc1I,> 100,> 100 µM,> 100,> 100 µM,,,> 100 µM,> 76.1 µM,> 100,> 100,,,,,,,,,
O=C1CSC(c2ccccc2O)N1c1ccc(Oc2ccc(Cl)cc2)c(Cl)c1 (stereo not drawn),46.6,35.7 µM,35,65.1 µM,> 100,66.1 µM,38 µM,47.3 µM,81.4,,,,,,,,,,
CS(=O)(=O)C1(Br)S(=O)(=O)OCCOS1(=O)=O,> 100,,> 100,> 100 µM,> 100,> 100 µM,,> 100 µM,> 100,,,,,,,,,,
O=C(Nc1nc2ncn(CCO)c2c(=O)[nH]1)c1ccccc1,,> 100 µM,> 100,> 100 µM,> 100,> 100 µM,,> 100 µM,> 100,,,,,,,,,,
CSc1nc2c3ccccc3ccn2c1C(=O)N/N=C/c1ccccc1,> 100,> 100 µM,> 100,> 100 µM,,39.1 µM,> 71.6 µM,> 71.2 µM,> 100,> 100,,,,,,,,,
